The values below come from US20240368139A1, “NOVEL MODULATORS OF EHMT1 AND EHMT2 AND THERAPEUTIC USE THEREOF” (Tango Therapeutics, Inc., priority 2021, published 2024).

Usually pIC50 stands for the IC50 on a negative log10 scale, so that one unit is a factor of ten.

The test system of assay [1] is H3K9me2 in HCT116 cells. The assay can be described thus: HCT116 H3K9me2 in-cell western assay. The assay is classed as cell-based. Particulars: Homo sapiens, read-out: H3K9me2 ICW IC50. The essentials: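 HCT116 cells (2,000/well) were treated for 72 h at 37° C, 5% CO2, with ten two-fold dilutions from 10 μM in duplicate. After PFA fixation, cells were stained overnight at 4° C with anti-H3K9me2, then with an 800 CW secondary plus DRAQ5.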

Assay [2] concerns the target hERG potassium channels (Homo sapiens, UniProt Q12809). The assay can be described thus: In vitro hERG assay (SyncroPatch whole-cell recording). Particulars: room temperature. Background: Block of hERG is tested as a sign of cardiac risk.
Method: CHO cells stably expressing hERG potassium channels from Sophion Biosciences were used for this test. The cells were cultured in a humidified and air-controlled (5% CO2) incubator at 37° C.
The CHO hERG Culture Medium consisted of 500 mL Ham's F12 (Invitrogen), 50 mL FBS (HyClone), 1 mL G418/Geneticin (Invitrogen, and 1 mL Hygromycin B (Invitrogen)
The CHO cells which were at least two days after plating and more than 75% confluent would be used for experiments. Before testing, cells were harvested using TrypLE and resuspended in the physiological solution at the room temperature.
For the electrophysiological recordings the following solutions were used (Table 5). The physiological solution and external solution were prepared at least one month. The intracellular solution was prepared in batches aliquoted, and stored at 4° C. until used.
Test compounds were dissolved in 100% DMSO to obtain stock solutions for different test concentrations. Then the stock solutions were further diluted into external solution to achieve final concentrations for testing. Visual check for precipitation was conducted before testing. Final DMSO concentration in external solution was not more than 0.30% for the test compounds.
Voltage command protocol: From this holding potential of −80 mV, the voltage was first stepped to −50 mV for 80 ms for leak subtraction, and then stepped to +20 mV for 4800 ms to open hERG channels. After that, the voltage was stepped back down to −50 mV for 5000 ms, causing a “rebound” or tail current, which was measured and collected for data analysis. Finally, the voltage was stepped back to the holding potential (−80 mV, 1000 ms). This voltage command protocol was repeated every 20000 msec. This command protocol was performed continuously during the test (vehicle control and test compound).
hERG SyncroPatch assay was conducted at room temperature. The Setup, Prime Chip, Catch and Seal Cells, Amplifier Settings, Voltage and Application Protocols were established with Biomek Software (Nanion). One addition of 40 μL of the vehicle was applied, followed by 300s for a baseline period. Then the doses of the compounds were added with 40 μL. The exposure of test compound at each concentration was no less than 300s. […] Five concentrations (0.30 μM, 1.00 μM, 3.00 μM, 10.00 μM and 30.00 μM) were tested for each compound. Minimum 2 replicates per concentration were obtained.
Within each well recording, percent of control values were calculated for each test compound concentration current response based on peak current in presence of reference control (current response/peak current)×100%. The Dose-Response curves were fit to the standard Hill equation as shown below:
Where X is the logarithm of concentration, Ipost cpd/Ipre cpa is the normalized peak current amplitude, Top is 1 and Bottom is equal to 0.
Curve-fitting and IC50 calculations were performed by GraphPad Prism 5.0.
Assay [3] has as its target T1, human EHMT1 982-1266 (Homo sapiens, UniProt Q9H9B1).
T1 sequence (Q9H9B1 982-1266): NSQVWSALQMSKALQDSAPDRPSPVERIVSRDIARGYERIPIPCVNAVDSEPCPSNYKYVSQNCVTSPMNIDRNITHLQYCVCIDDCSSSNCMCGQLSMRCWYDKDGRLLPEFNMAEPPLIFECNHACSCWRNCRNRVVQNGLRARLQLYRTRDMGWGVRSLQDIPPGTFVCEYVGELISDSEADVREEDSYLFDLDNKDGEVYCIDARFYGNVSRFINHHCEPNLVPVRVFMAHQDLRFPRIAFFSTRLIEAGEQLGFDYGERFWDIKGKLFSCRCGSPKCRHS
In words: EHMT1 enzyme assay on histone peptide substrate (3H-SAM SPA). The settings on record: EHMT1 IC50, recombinant human EHMT1 982-1266, histone peptide substrate.

Assay [4] addresses T2, human EHMT2 913-1193 (Homo sapiens, UniProt Q96KQ7).
T2 sequence (Q96KQ7 913-1193): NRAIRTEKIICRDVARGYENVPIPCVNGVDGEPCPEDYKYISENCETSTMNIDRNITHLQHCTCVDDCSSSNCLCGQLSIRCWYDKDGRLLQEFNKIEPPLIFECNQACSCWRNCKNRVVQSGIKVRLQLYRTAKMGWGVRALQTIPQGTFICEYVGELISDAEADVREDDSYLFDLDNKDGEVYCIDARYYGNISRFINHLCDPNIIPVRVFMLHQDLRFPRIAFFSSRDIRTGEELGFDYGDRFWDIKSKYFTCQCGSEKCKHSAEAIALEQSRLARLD
In words: EHMT2 enzyme assay on histone peptide substrate (3H-SAM SPA). Particulars: EHMT2 IC50, recombinant human EHMT2 913-1193, histone peptide substrate.

Where [5] appears, read: HCT-116, 72 h, HCT116 cells, 72 hours incubation.
Where [6] appears, read: hERG IC50, CHO cells stably expressing hERG.

Each structure is given as a SMILES string. pIC50: −log10 of the molar value. Like-named read-outs stand apart in the source and are kept apart here. Bounds are passed on as bounds.

Sequence of hERG potassium channels (Q12809 whole entry): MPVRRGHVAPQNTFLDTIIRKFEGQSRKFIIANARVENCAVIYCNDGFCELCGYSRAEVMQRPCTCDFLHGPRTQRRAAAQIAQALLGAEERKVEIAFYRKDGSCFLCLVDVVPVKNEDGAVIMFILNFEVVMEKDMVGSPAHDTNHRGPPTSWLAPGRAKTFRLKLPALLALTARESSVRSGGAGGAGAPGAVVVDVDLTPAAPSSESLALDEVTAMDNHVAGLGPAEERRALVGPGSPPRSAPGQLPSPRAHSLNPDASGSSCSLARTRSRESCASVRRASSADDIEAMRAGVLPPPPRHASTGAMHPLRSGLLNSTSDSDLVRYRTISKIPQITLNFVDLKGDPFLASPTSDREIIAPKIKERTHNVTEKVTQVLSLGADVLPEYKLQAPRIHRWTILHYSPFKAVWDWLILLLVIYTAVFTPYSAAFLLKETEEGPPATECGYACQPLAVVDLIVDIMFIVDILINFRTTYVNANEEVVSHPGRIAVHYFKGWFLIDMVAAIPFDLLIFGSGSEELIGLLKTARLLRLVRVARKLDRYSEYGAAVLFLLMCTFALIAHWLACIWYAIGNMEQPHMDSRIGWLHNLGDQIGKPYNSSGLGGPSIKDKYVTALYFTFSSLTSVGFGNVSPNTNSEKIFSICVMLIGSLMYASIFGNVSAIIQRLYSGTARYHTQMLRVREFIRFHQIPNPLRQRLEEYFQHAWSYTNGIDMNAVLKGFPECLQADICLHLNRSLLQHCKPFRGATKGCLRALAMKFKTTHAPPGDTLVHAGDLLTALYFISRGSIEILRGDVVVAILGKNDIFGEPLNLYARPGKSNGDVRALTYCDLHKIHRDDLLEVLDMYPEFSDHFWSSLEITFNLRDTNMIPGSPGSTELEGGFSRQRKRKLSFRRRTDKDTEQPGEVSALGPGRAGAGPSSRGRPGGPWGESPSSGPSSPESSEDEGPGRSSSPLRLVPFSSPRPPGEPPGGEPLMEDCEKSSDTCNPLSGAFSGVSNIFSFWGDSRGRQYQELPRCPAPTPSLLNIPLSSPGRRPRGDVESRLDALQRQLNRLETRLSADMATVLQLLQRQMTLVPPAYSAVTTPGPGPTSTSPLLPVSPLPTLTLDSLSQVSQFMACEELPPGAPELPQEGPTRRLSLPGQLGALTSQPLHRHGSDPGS

Turning to `CNc1cc(C)nc(Nc2cc3c(c(C4=C[C@H]5CNC[C@H]5C4)c2)OCCO3)n1` (racemic) [Compound 134, N2-[5-(1,2,3,3a,6,6a-hexahydrocyclopenta[c]pyrrol-5-yl)-2,3-dihydro-1,4-benzodioxin-7-yl]-N4,6-dimethyl-pyrimidine-2,4-diamine], the negative logarithm of the IC50 (pIC50) in assay [1] (setting [5]) was 6.30 to 7.00; in assay [2] (hERG IC50, SyncroPatch), below 5.00; in assay [3] it was 6.30 to 7.00; in assay [4] it was 6.30 to 7.00.

With `CNc1cc(C)nc(Nc2cc3c(c(C4=CCNCC(F)C4)c2F)OCC3)n1` (single isomer, unassigned) [Compound 167], the pIC50 in assay [1] (setting [5]) was above 7.00; in assay [2] (hERG IC50, SyncroPatch) it was 5.00 to 5.30; in assay [3], above 7.00; in assay [4], above 7.00.

On to `CNc1cc(C)nc(Nc2cc3c(c(C4=CCNCCC4)c2F)OCC3C)n1` (single isomer, unassigned) [Compound 169], for which the pIC50 in assay [1] (setting [5]) is above 7.00; in assay [2] (hERG IC50, SyncroPatch) it was 5.00 to 5.30; in assay [3], above 7.00; in assay [4] it was above 7.00.

Take `CNc1cc(C)nc(Nc2cc3c(c(C4=CCNCCC4)c2F)OCC3C)n1` (single isomer, unassigned) [Compound 170]: the negative logarithm of the IC50 (pIC50) in assay [2] (hERG IC50, SyncroPatch) is above 5.70.

On to `CNc1cc(C)nc(Nc2cc3c(c(C4=CCNC(C)CC4)c2F)OCC3)n1` (single isomer, unassigned) [Compound 183], for which the negative logarithm of the IC50 (pIC50) in assay [1] (setting [5]) was above 7.00; in assay [2] (hERG IC50, SyncroPatch), below 5.00; in assay [3] it was above 7.00; in assay [4], above 7.00.

For `CNc1cc(C)nc(Nc2cc3c(c(C4=CCNC(C)CC4)c2Cl)OCCC3)n1` (single isomer, unassigned) [Compound 357], the pIC50 in assay [1] (setting [5]) is above 7.00; in assay [2] (hERG IC50, SyncroPatch) it was 5.00 to 5.30; in assay [3] it was above 7.00; in assay [4] it was above 7.00.

Regarding `CNc1cc(C)nc(Nc2cc3c(c(C4=CCNC(C)CC4)c2F)OCO3)n1` (single isomer, unassigned) [Compound 369], the negative logarithm of the IC50 (pIC50) was above 7.00 in assay [1] (setting [5]); 5.00 to 5.30 in assay [2] (hERG IC50, SyncroPatch); above 7.00 in assay [3]; above 7.00 in assay [4].

For the compound `CNc1cc(C)nc(Nc2cc3c(c(C4=CCNCC(O)C4)c2C)OCC3)n1` (single isomer, unassigned) [Compound 370], the pIC50 in assay [2] (hERG IC50, SyncroPatch) was below 5.00; in assay [3] it was above 7.00; in assay [4] it was above 7.00.

In the case of `CNc1cc(C)nc(Nc2cc3c(c(C4=CCNCC(O)C4)c2F)OCC3)n1` (single isomer, unassigned) [Compound 373], the pIC50 in assay [1] (setting [5]) is above 7.00; in assay [2] (hERG IC50, SyncroPatch), below 5.00; in assay [3], above 7.00; in assay [4], above 7.00.

Turning to `CNc1cc(C)nc(Nc2cc3c(c(C4=CCNC(C)CC4)c2Cl)OCC3)n1` (single isomer, unassigned) [Compound 374], the pIC50 in assay [1] (setting [5]) was above 7.00; in assay [2] (hERG IC50, SyncroPatch), below 5.00; in assay [3], above 7.00; in assay [4], above 7.00.

As to `CNc1cc(C)nc(Nc2cc3c(c(C4=CCNCC(O)C4)c2Cl)OCC3)n1` (single isomer, unassigned) [Compound 384], the negative logarithm of the IC50 (pIC50) was below 5.00 in assay [2] (hERG IC50, SyncroPatch) and above 7.00 in assay [4].

`CNc1cc(C)nc(Nc2cc3c(c(OCCCN4CCCC4)c2)OCC3)n1` [Compound 103, N^4,6-dimethyl-N^2-[7-(3-pyrrolidin-1-ylpropoxy)-2,3-dihydrobenzofuran-5-yl]pyrimidine-2,4-diamine]: the pIC50 in assay [1] (setting [5]) is 6.30 to 7.00; in assay [2] (hERG IC50, SyncroPatch) it was below 5.00; in assay [3] it was 6.30 to 7.00; in assay [4] it was 5.70 to 6.30.

As to `CNc1cc(C)nc(Nc2cc3c(c(C4=CCNCCC4)c2F)OCC3)n1` [Compound 291, N2-[6-fluoro-7-(2,3,4,7-tetrahydro-1H-azepin-5-yl)-2,3-dihydrobenzofuran-5-yl]-N4,6-dimethyl-pyrimidine-2,4-diamine], the pIC50 is above 7.00 in assay [1] (setting [5]); below 5.00 in assay [2] (setting [6]); below 5.00 in assay [2] (hERG IC50, SyncroPatch).

In the case of `Cc1cc(NCC(F)(F)F)nc(Nc2cc3c(c(C4=CCN(C)CCC4)c2)OCC3)n1` [Compound 320], the negative-log IC50 (pIC50) in assay [1] (setting [5]) was 6.30 to 7.00; in assay [3] it was 6.30 to 7.00; in assay [4], 5.70 to 6.30.

As for `CCNc1cc(C)nc(Nc2cc3c(c(C4=CCN(C)CCC4)c2)OCC3)n1` [Compound 321], the negative-log IC50 (pIC50) was 6.30 to 7.00 in assay [1] (setting [5]), above 7.00 in assay [3] and 6.30 to 7.00 in assay [4].

With `CNc1cc(C)nc(Nc2cc3c(c(C4=CCN(C)CCC4)c2)CCO3)n1` [Compound 333], the pIC50 in assay [1] (setting [5]) was 5.70 to 6.30; in assay [3] it was 6.30 to 7.00; in assay [4] it was 5.70 to 6.30.

Turning to `CNc1cc(C)nc(Nc2cc3c(c(N4C[C@H]5CNC[C@H]5C4)c2)OCCC3)n1` [Compound 338], the pIC50 was 6.30 to 7.00 in assay [1] (setting [5]), 6.30 to 7.00 in assay [3] and 5.70 to 6.30 in assay [4].

Regarding `CNc1cc(C)nc(Nc2cc3c(c(N4CCCNCC4)c2)OCCC3)n1` [Compound 339], the figures for the pIC50 in assay [1] (setting [5]), in assay [3] and in assay [4] were 6.30 to 7.00, 6.30 to 7.00 and 5.70 to 6.30, respectively.

As for `CNc1cc(C)nc(Nc2cc3c(c(C4C[C@H]5CNC[C@H]5C4)c2)OCCC3)n1` (some centres unmarked) [Compound 340], the pIC50 in assay [1] (setting [5]) was 6.30 to 7.00; in assay [3] it was above 7.00; in assay [4] it was 6.30 to 7.00.

On to `CNc1cc(C)nc(Nc2cc3c(c([C@H]4C[C@H]5CNC[C@H]5C4)c2)OCO3)n1` [Compound 342], for which the results for the negative-log IC50 (pIC50) in assay [1] (setting [5]), in assay [3] and in assay [4] were 5.70 to 6.30, 6.30 to 7.00 and 5.70 to 6.30, respectively.

On to `CNc1cc(C)nc(Nc2cc3c(c(C4CCCNCC4)c2)OCO3)n1` (centres unmarked) [Compound 343], for which the pIC50 in assay [1] (setting [5]) was 6.30 to 7.00; in assay [3], 6.30 to 7.00; in assay [4], 5.70 to 6.30.

Consider `CNc1cc(C)nc(Nc2cc3c(c(C4=C[C@H]5CNC[C@H]5C4)c2)OCCC3)n1` [Compound 344], for which the results for the pIC50 in assay [1] (setting [5]), in assay [3] and in assay [4] were 6.30 to 7.00, 6.30 to 7.00 and 5.70 to 6.30, respectively.

As to `CNc1cc(C)nc(Nc2cc3c(c(C4=CCNCC4)c2)OCCC3)n1` [Compound 345], the pIC50 in assay [1] (setting [5]) was 6.30 to 7.00; in assay [3], 6.30 to 7.00; in assay [4], 5.70 to 6.30.

As to `CNc1cc(C)nc(Nc2cc3c(c(C4=CCC(N)CC4)c2)OCCC3)n1` (centres unmarked) [Compound 346], the pIC50 is 6.30 to 7.00 in assay [1] (setting [5]), 6.30 to 7.00 in assay [3] and below 5.70 in assay [4].

For `CNc1cc(C)nc(Nc2cc3c(c(C4=C[C@H]5CNC[C@H]5C4)c2)OCO3)n1` [Compound 347], the results for the pIC50 in assay [1] (setting [5]), in assay [3] and in assay [4] were 6.30 to 7.00, 6.30 to 7.00 and 5.70 to 6.30, respectively.

For the compound `CNc1cc(C)nc(Nc2cc3c(c(N4C[C@H]5CNC[C@H]5C4)c2F)OCC3)n1` [Compound 351, N2-[6-fluoro-7-[rac-(3aS,6aR)-2,3,3a,4,6,6a-hexahydro-1H-pyrrolo[3,4-c]pyrrol-5-yl]-2,3-dihydrobenzofuran-5-yl]-N4,6-dimethyl-pyrimidine-2,4-diamine], the pIC50 in assay [1] (setting [5]) is 6.30 to 7.00; in assay [3], above 7.00; in assay [4], 6.30 to 7.00.

As to `CNc1cc(C)nc(Nc2cc3c(c(C4=CCNCCC4)c2C)OCCC3)n1` [Compound 353, N4,6-dimethyl-N2-[7-methyl-8-(2,3,4,7-tetrahydro-1H-azepin-5-yl)chroman-6-yl]pyrimidine-2,4-diamine], the pIC50 in assay [1] (setting [5]), in assay [3] and in assay [4] was above 7.00 each time.

For the compound `CNc1cc(C)nc(Nc2cc3c(c(C4=CCNCCC4)c2C)OCO3)n1` [Compound 363], the negative logarithm of the IC50 (pIC50) in assay [1] (setting [5]) was above 7.00; in assay [3], above 7.00; in assay [4], 6.30 to 7.00.

On to `CNc1cc(C)nc(Nc2cc3c(c(C4C[C@H]5CNC[C@H]5C4)c2F)OCC3)n1` (some centres unmarked) [Compound 437, N2-[7-(1,2,3,3a,4,5,6,6a-octahydrocyclopenta[c]pyrrol-5-yl)-6-fluoro-2,3-dihydrobenzofuran-5-yl]-N4,6-dimethyl-pyrimidine-2,4-diamine], for which the negative logarithm of the IC50 (pIC50) is 6.30 to 7.00 in assay [1] (setting [5]), 5.70 to 6.30 in assay [3] and 5.70 to 6.30 in assay [4].

Regarding `CNc1cc(C)nc(Nc2ccc(OC)c(C3=CCN(C)CCC3)c2)n1` [Reference Compound A, reference compound], the pIC50 in assay [1] (HCT-116, 72 h) was above 7.00; in assay [2] (setting [6]), 5.00 to 5.30; in assay [2] (hERG IC50, SyncroPatch), 5.00 to 5.30; in assay [3], above 7.00.

As to `CNc1cc(C)nc(Nc2ccc(OC)c(C3=CCNCCC3)c2)n1` [Reference Compound B, reference compound], the pIC50 in assay [1] (HCT-116, HCT116 cells, 72 hours incubation) is above 7.00; in assay [2] (setting [6]), 5.00 to 5.30; in assay [2] (hERG IC50, SyncroPatch), 5.00 to 5.30; in assay [4], above 7.00.
